Where a SMILES comes first, the peptide text is derived from it.
Legend:
fever = settings: relative to parent peptide or α-MSH(11-13); cited from earlier work
psoriatic lesions = assay: Topical treatment of psoriatic lesions in a subject, KPV in mineral oil vs contralateral Hydrocortisone; settings: for Adverse reactions or side effects: treatment continued for eleven days
Excerpt: In a subject with a diagnosed and confirmed greater than ten year history of dermatologically symptomatic psoriasis, KPV was used to treat inflammation, scaling, dryness, pain, erythema, and pruritis. The subject had psoriatic lesions located bilaterally on the volar (palm side) surface of the forearms. The lesions varied in time of existence for greater than ten years with variagated presentation. The subject presented no opportunistic infection of the integument secondary to the psoriatic lesions.
KPV in a crystalline form was prepared as disclosed in U.S. Pat. No. 5,028,592. Mineral oil was chosen as a carrier for the KPV preparation. One milligram of KPV was administered topically on the affected areas of the integument at a frequency of twice daily. For comparison purposes, a standard dosage amount of Hydrocortisone was placed on the contralateral area of the body of the subject that also manifested the dermatological sequelae of psoriasis. Topical administration was accomplished with standard cotton tipped applicators.
This treatment was continued for eleven days.

inflammation = settings: relative to L-form tripeptide α-MSH (11-13); cited from earlier work

Compound: 8-13 sequence: α-MSH 8-13 fragment (RWGKPV; Designed polypeptide with anti-inflammatory, anti-bacterial, anti-fungal and antipyretic properties.)
- Antipyretic potency (fever): greater than that of the 11-13 sequence

Compound: 9-13 sequence: α-MSH 9-13 fragment (WGPKV; Designed polypeptide with anti-inflammatory, anti-bacterial, anti-fungal and antipyretic properties.)
- Antipyretic potency (fever): almost devoid of activity

Compound: 10-13 sequence: α-MSH(11-13) with glycine added to form the 10-13 sequence (GKPV; Designed polypeptide with anti-inflammatory, anti-bacterial, anti-fungal and antipyretic properties.)
- Antipyretic potency (fever): slightly decreased potency

Compound: C[C@]12CCC(=O)C=C1CC[C@@H]1[C@@H]2[C@@H](O)C[C@@]2(C)[C@H]1CC[C@]2(O)C(=O)CO [Hydrocortisone]
- Improvement of symptoms associated with the psoriatic lesions (psoriatic lesions; KPV one milligram twice daily in mineral oil, Hydrocortisone standard dosage on contralateral side): showed improvement
- Period of symptom control / relief from symptoms (psoriatic lesions; psoriatic lesions on forearms): three hours
- Adverse reactions or side effects (psoriatic lesions): telangictasia and atrophy of skin

Compound: CC(C)[C@H](NC(=O)[C@@H]1CCCN1C(=O)[C@@H](N)CCCCN)C(=O)O [KPV, lysine-proline-valine] (H-Lys-Pro-Val-OH)
- Adverse reactions or side effects (psoriatic lesions): No adverse reactions or side effects

Compound: Ac-[D-K11]-α-MSH 11-13-NH2
- Anti-inflammatory activity / general potency (inflammation): same general potency as the L-form

Compound: [Nle^4,D-Phe^7]-α-MSH
- Antipyretic potency (fever): approximately ten times more potent than the parent peptide

Compound: α-MSH sequence (4-10): the "core" α-MSH sequence (4-10)
- Anti-inflammatory activity / general potency (inflammation): little antipyretic and anti-inflammatory activity
- Antipyretic potency (fever): little antipyretic and anti-inflammatory activity

From US7232804B2, “Use of KPV tripeptide for dermatological disorders” (Zengen, Inc., priority 2001, dated 2007)
